In patent US20240189291A1, “Prevention And Treatment Of Atrial Fibrillation/Flutter With Gamma-Ketoaldehyde Scavengers” (Vanderbilt University, priority 2016, published 2024):
Several values for one entry are separate records, joined by “and”; a condition that tells them apart may be missing. Identical values can stand only once. Entries after “also recorded” stand apart in the source; their conditions may differ. Like-named read-outs stand apart in the source and are kept apart here.

Assays:
atrial HL-1 cells [1] = assay: Rapid pacing of cultured atrial HL-1 cells (cellular model simulating AF); format: cell-based
Description: Protein oligomers and IsoLGs in a cellular model simulating AF. […] Moreover, exposure of unpaced cells to a physiologic concentration of IsoLGs caused cytosolic PAO production, similar to that observed with rapid pacing (FIG. 4, top panels).

[2] = tested on: hypertensive (ang II) mice; assay: Murine model of ang II-mediated hypertension with inducible AF; format: in vivo; conditions: for AF burden / AF susceptibility (total inducible AF): 2-HOBA and 4-HOBA 1G/L in drinking water
Description: Experimental hypertension: Evidence for IsoLGs in AF susceptibility. Oxidative stress and PAO burden in human atrium are linked to HTN. […] The present inventors have determined that IsoLGs are mediators for AF susceptibility in HTN using a murine model (2 wk mini-pump infusion of angiotensin II [ang II]), in which mice develop sustained HTN and inducible AF. […] Importantly, mass spectrometry data have confirmed this finding (FIG. 5B), with a striking 100 fold increase in atrial adduct formation during HTN (2-3 fold greater increase than that seen in Alzheimer's brain). In addition, PAOs accumulated in the atria of hypertensive compared to control mice (FIGS. 5C and D). […] As expected, hypertensive mice developed inducible AF compared to control (FIG. 7). […] Normalization of BP in ang II-treated mice with hydralazine/HCTZ prevented AF susceptibility, while mechanical stretch of atrial myocytes generated both LG adducts (FIG. 9) and PAOs (not shown), signifying a critical role of atriomyocyte stretch. The AF substrate was reversible by 2 wks after stopping ang II (85% reduction in total AF burden), with partial normalization of BP (74%; n=13, data not shown). Of note, 2-HOBA had no effects on any ECG parameters in HTN mice.

[3] = tested on: mice fed a high-fat diet (HFD); assay: Mouse model of diet-induced obesity (DIO) with inducible AF; format: in vivo; conditions: 12 weeks, co-treatment
Description: Experimental obesity: Evidence for IsoLGs in AF susceptibility. Given that obesity is also linked to inflammation and oxidative stress, we have begun studies to investigate the role of IsoLGs in a mouse model of diet-induced obesity (DIO). […] Thus, in the early stages of both HTN and obesity, the present inventors show a role for IsoLGs in the AF substrate. In both HTN and obesity, AF was inducible in the absence of fibrosis, with reversibility in HTN. These findings imply that IsoLGs constitute an early pathologic target, and that their inhibition could potentially prevent the development of AF. In the proposed studies, we will confirm the critical role of IsoLGs using rigorous experimental approaches. For these studies, we use well-characterized murine models of HTN and obesity described above and routinely employed.
The following data are for 12 week-treated animals.

[4] = tested on: hypertensive (ang II) mice; conditions: ang II-mediated HTN in mice, earlier work (Kirabo and colleagues), cited from earlier work
IsoLGs = conditions: cited from earlier work
ROS = conditions: cited from earlier work
COX1 = COX1 (Homo sapiens, UniProt P23219); conditions: cited from earlier work
COX2 = molecular target: T1, COX2 (Homo sapiens, UniProt P35354); conditions: cited from earlier work
T1 sequence (P35354 18-604): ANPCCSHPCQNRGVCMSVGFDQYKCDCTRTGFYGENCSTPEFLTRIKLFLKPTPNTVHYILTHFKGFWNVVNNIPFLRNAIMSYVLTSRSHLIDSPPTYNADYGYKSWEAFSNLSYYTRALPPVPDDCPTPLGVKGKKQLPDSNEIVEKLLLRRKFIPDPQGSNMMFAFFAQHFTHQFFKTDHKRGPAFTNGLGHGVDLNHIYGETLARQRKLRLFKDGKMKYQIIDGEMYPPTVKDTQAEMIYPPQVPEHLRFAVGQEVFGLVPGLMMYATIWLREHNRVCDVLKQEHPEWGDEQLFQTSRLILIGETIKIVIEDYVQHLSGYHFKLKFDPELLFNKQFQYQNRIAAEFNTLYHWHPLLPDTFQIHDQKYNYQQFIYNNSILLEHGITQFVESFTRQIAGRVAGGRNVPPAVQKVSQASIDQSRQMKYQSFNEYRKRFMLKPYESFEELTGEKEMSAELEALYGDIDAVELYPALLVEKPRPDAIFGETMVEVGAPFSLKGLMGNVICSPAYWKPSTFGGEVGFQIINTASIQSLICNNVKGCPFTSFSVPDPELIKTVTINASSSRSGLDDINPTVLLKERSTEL

[5] = tested on: mouse model of Alzheimer's disease; conditions: cited from earlier work
[6] = in vitro studies, in vivo studies in mice, pre-clinical toxicology studies; cited from earlier work
atrial HL-1 cells [7] = assay: Cytotoxicity of ANP oligomers to atrial HL-1 cells (ATP production); format: cell-based; conditions: peptide oligomers, 24 hr exposure; listed as ANP oligomers
Protocol: Mutant ANP is highly fibrillogenic, generating cytotoxic PAOs. To compare oligomer formation between WT and mutant ANP, Western analysis was performed on peptides allowed to oligomerize at 23° C. for variable time points. […] For amyloid β1-42, oligomer toxicity is a transient, time-dependent phenomenon, in the progression from monomers to PAOs to fibrils. To investigate this process for WT and mutant ANP, peptides incubated in vitro to generate oligomers over different time periods were incubated with atrial HL-1 cells for 24 hr. For WT ANP, proteotoxicity (manifested by decreased cellular ATP production) was maximal for PAOs generated during a 2 wk incubation, while for mutant ANP, the time point of maximal oligomer cytotoxicity occurred much earlier, within ˜3 d (FIG. 14). Cytotoxicity was confirmed by measuring cellular oxygen consumption rate using extracellular flux analysis (Seahorse Bioscience XFE96). Thus, oligomers formed by both WT and mutant ANP cause atrial myocyte dysfunction, as evidenced by reduced cardiomyocyte ATP production, with proteotoxicity occurring earlier for mutant compared to WT ANP, consistent with accelerated oligomer formation.

[8] = rapidly paced atrial HL-1 cells in presence of compound
[9] = ang II-treated hypertensive mice, 1G/L in drinking water
[10] = ang II-treated hypertensive mice

Sequence of COX1 (P23219 24-599): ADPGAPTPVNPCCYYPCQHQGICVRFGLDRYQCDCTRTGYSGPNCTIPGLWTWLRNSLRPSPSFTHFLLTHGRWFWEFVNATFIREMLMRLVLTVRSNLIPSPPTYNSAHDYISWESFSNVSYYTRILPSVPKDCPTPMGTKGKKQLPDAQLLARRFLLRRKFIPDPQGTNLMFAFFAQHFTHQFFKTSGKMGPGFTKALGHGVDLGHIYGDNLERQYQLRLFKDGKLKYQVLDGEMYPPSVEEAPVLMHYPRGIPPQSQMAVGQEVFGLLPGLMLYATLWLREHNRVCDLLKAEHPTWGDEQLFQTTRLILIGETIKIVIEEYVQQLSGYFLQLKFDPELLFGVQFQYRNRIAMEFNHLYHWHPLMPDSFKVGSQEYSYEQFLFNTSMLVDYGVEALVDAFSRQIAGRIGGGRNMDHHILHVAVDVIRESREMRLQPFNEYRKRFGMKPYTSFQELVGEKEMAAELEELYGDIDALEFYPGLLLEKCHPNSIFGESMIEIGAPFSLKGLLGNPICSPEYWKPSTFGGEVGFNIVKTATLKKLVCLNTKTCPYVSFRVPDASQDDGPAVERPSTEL

Compound: NCc1ccccc1O [2-HOBA, 2-hydroxybenzylamine]
- PAO formation (atrial HL-1 cells [1]; [8]): virtually eliminated and 2-HOBA prevents
- myocyte stress response (transcriptional upregulation of Nppb and Hspa1a) (atrial HL-1 cells [1]; [8]): blunted
- isoLG adducts (atrial HL-1 cells [1]; rapidly-beating atrial cell model): 2-HOBA prevents
- ECG parameters ([2]; HTN mice): no effects
- atrial IsoLG adducts [2, 9]: prevents and markedly reduced and 2-HOBA reduces
- atrial PAO formation [2, 9]: prevents and markedly reduced and 2-HOBA reduces
- AF burden / AF susceptibility (total inducible AF) [2, 10]: suppressed and markedly reduced and 2-HOBA reduces
- AF burden (total inducible AF) [3]: suppressed and markedly suppressed and 2-HOBA reduces
- blood pressure / antihypertensive effect [4]: effectively lowered; also recorded: prominent antihypertensive effect
- blood pressure / antihypertensive effect ([4]; listed as salicylamine): remarkable therapeutic benefit
- dicarbonyl scavenging activity (IsoLGs): can also scavenge other injurious lipid dicarbonyl compounds such as MDA
- rate of reaction with IsoLGs compared to IsoLG binding to the ε-amine of lysine (IsoLGs): much more rapid rate (by several orders of magnitude)
- ROS levels (ROS): does not reduce ROS levels significantly
- concentrations of O2·− or F2-Isoprostanes (ROS; during in vitro oxidation): do not affect
- inhibition of COX1 enzyme (COX1): does not inhibit
- inhibition of COX2 enzyme (COX2): does not inhibit
- development of cognitive impairment / therapeutic benefit [5]: prevent
- development of cognitive impairment / therapeutic benefit ([5]; listed as salicylamine): remarkable therapeutic benefit
- safety profile [6]: excellent safety profile

Compound: NCc1ccc(O)cc1 [4-HOBA, reference compound]
- AF burden / AF susceptibility (total inducible AF) [2, 10]: had no effect
- AF burden (total inducible AF) [3]: had no effect; also recorded: did not
- dicarbonyl scavenging activity (IsoLGs): cannot scavenge dicarbonyls

Compound: WT ANP: wild-type atrial natriuretic peptide (28 amino acids), incubated to form oligomers
- cytotoxicity (ATP production by atrial HL-1 cells) (atrial HL-1 cells [7]): reduced ATP production; also recorded: cytotoxic

Compound: hydralazine/hydrocholorothiazide [hydralazine/HCTZ, reference compound]
- AF burden / AF susceptibility (total inducible AF) [2, 10]: prevented
- blood pressure (BP) ([2]; ang II-treated mice): Normalization
